From the supplement of paper PMC12463676, “Small-molecule dissolution of stress granules by redox modulation benefits ALS models” (Nature Chemical Biology, 2025)

What was measured:
lipoamide = compound: NC(=O)CCCCC1CCSS1 [lipoamide]; experiment: thermal stability z-score vs DMSO; higher = more thermally stabilized by treatment; details: HeLa, lipoamide concentration 100 µM
Experimental: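 Cellular thermal proteome profiling in HeLa cells. Cells were treated with 100 µM lipoamide for 1 h, with or without 1 mM arsenate for a further 1 h, then heated to ten temperatures (37-66.3 °C), and soluble protein was quantified by TMT mass spectrometry relative to 0.1% DMSO controls. The thermal stability score (sum of log2 fold changes minus the abundance score) was transformed to a z-score; mean of n = 3 experiments.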

potassium arsenate = compound: O=[As]([O-])(O)O.[K+] [potassium arsenate]; experiment: as above; details: HeLa; arsenate concentration 1 mM
Experimental: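 Cellular thermal proteome profiling in HeLa cells treated with 1 mM arsenate for 1 h (DMSO pretreatment), heated to ten temperatures (37-66.3 °C). Soluble protein was quantified by TMT mass spectrometry relative to DMSO controls; the thermal stability score was transformed to a z-score; mean of n = 3 experiments.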

[1] = arsenate co-treatment: 1 mM arsenate 1 h
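Further: each temperature applied for 3 min, abundance score taken as mean log2 fold change at the two lowest temperatures, z-score obtained by mean subtraction and division by SD.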

Chain of UniProt Q9UJX2 (Q9UJX2 whole entry): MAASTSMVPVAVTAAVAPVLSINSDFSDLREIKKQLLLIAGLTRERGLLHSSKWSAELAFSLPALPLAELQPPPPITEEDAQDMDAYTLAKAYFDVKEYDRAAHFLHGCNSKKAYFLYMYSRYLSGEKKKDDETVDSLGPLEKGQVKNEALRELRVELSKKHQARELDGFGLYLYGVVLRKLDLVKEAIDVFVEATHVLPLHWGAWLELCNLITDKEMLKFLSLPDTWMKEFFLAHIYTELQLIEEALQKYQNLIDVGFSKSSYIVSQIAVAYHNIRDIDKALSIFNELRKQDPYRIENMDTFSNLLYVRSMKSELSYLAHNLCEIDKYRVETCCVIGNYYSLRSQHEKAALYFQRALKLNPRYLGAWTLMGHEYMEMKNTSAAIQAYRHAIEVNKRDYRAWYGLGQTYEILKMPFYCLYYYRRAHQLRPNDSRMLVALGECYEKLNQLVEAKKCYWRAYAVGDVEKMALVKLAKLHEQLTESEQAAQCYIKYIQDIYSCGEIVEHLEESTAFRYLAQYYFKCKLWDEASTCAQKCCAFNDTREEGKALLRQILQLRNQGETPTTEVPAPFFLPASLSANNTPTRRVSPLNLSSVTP
Chain of UniProt P10909 (P10909 whole entry): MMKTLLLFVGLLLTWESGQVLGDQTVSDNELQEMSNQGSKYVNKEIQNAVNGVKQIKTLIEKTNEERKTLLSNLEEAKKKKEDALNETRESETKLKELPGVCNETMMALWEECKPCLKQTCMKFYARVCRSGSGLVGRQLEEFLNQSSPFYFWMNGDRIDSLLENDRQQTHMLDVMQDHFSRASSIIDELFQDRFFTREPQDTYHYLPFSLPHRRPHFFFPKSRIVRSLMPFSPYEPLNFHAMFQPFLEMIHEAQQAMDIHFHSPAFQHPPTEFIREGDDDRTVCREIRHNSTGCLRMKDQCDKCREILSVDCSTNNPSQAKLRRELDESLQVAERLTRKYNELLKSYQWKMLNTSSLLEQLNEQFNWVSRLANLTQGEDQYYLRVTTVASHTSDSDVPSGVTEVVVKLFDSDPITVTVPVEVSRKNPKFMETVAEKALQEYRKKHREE
Chain of UniProt Q6ZNJ1 (Q6ZNJ1 whole entry): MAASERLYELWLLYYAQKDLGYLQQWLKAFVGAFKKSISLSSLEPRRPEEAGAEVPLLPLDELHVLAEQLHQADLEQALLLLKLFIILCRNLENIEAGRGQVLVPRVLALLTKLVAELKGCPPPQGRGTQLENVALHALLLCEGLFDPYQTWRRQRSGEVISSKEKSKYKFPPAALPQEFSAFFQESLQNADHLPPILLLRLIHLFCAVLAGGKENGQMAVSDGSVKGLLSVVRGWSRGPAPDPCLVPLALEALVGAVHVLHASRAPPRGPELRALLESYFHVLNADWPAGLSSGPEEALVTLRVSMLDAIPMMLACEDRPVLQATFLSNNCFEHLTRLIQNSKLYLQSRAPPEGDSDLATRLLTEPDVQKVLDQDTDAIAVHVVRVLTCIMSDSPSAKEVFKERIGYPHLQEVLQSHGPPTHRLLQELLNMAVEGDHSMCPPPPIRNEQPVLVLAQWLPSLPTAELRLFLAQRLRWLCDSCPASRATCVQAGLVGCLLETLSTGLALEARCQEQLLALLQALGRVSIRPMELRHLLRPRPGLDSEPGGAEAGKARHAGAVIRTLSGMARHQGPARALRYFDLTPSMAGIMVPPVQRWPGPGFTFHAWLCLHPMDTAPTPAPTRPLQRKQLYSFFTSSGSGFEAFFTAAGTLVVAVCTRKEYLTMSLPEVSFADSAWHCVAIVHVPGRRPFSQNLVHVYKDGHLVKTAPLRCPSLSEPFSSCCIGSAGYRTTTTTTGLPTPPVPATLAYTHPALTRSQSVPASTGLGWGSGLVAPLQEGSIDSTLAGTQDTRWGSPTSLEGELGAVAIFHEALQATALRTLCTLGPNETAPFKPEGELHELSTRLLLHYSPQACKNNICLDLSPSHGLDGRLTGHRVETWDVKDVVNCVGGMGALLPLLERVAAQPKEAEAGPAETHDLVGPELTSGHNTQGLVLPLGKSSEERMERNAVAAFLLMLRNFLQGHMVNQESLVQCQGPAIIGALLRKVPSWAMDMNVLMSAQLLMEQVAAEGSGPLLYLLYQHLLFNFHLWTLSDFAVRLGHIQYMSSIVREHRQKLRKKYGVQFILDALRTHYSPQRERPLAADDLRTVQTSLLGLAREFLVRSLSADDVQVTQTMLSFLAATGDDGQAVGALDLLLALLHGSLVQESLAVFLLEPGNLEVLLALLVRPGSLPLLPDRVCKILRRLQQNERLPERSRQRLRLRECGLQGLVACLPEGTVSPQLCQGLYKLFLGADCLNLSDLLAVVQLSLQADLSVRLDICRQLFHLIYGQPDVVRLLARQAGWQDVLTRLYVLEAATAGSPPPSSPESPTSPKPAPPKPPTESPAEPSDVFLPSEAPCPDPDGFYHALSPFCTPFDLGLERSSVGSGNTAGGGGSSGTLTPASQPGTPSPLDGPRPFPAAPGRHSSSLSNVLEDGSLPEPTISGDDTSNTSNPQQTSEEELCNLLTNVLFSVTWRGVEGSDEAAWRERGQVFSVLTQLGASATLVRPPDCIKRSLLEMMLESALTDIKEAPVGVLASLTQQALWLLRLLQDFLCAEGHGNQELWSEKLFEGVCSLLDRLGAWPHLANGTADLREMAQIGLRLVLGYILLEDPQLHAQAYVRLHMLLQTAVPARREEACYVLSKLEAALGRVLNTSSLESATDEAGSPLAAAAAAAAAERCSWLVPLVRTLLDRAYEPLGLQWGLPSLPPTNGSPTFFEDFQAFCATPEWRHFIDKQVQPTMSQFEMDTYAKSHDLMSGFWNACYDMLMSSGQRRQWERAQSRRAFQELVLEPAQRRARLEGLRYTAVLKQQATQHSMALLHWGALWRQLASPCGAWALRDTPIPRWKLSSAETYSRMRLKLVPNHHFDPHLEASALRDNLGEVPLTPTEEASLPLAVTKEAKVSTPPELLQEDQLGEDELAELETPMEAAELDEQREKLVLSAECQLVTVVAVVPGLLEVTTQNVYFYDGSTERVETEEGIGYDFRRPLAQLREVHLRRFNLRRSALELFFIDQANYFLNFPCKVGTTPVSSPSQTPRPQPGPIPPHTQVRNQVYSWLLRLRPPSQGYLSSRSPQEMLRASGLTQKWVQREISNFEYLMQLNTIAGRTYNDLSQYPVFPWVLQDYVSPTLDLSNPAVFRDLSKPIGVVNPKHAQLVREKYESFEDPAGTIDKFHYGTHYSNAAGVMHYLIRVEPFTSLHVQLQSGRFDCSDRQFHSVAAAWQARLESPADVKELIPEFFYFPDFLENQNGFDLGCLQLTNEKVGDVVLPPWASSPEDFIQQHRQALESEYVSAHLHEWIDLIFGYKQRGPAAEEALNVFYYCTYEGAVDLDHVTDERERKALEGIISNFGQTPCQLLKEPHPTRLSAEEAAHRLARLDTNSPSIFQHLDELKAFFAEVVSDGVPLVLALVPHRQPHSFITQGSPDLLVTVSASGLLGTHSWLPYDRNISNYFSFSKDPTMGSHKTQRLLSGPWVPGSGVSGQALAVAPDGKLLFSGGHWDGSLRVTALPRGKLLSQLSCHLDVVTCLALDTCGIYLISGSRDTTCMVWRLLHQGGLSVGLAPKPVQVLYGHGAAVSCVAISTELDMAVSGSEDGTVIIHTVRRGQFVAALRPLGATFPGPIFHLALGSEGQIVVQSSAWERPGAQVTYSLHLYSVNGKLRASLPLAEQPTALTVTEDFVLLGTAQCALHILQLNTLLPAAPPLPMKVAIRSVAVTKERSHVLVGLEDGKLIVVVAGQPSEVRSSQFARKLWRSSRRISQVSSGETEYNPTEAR
Chain of UniProt P62316 (P62316 whole entry): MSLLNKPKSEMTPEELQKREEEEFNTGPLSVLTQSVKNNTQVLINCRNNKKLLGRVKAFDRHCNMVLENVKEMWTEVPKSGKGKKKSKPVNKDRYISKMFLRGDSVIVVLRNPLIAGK
Chain of UniProt Q9UHD2 (Q9UHD2 whole entry): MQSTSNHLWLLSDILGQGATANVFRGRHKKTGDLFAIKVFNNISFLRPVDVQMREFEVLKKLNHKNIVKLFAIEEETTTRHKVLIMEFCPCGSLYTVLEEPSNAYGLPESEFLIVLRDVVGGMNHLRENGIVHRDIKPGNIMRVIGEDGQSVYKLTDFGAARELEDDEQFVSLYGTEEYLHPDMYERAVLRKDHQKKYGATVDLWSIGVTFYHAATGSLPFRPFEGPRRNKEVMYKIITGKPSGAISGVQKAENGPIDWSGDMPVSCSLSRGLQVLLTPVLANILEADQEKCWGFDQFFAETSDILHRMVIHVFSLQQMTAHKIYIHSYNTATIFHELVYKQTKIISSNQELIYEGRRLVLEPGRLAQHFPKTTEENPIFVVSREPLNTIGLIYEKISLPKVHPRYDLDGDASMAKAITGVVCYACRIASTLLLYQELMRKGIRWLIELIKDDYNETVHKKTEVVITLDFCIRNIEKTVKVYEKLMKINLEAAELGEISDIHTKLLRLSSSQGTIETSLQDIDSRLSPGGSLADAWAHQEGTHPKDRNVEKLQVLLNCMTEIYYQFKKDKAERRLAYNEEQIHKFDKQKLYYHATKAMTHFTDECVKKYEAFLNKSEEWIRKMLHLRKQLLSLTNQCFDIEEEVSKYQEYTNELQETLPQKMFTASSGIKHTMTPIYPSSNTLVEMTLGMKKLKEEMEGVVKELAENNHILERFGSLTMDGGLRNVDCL
Chain of UniProt Q9BR61 (Q9BR61 whole entry): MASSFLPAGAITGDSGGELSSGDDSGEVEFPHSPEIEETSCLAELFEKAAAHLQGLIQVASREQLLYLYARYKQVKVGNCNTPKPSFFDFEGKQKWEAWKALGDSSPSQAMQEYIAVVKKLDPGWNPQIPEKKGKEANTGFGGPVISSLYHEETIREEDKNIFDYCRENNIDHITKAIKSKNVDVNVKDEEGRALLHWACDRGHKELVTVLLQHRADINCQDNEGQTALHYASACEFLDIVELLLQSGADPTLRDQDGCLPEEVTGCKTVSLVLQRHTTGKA
Chain of UniProt P52758 (P52758 whole entry): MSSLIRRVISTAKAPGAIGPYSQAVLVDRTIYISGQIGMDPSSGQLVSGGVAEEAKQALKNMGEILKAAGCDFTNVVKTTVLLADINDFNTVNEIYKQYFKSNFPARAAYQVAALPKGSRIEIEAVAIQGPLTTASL

Row | Target | thermal stability z-score (lipoamide; [1]) | thermal stability z-score (lipoamide; arsenate co-treatment: none) | thermal stability z-score (potassium arsenate)
1 | RALB (UniProt P11234) | 0.25 | -0.129 | 0.0205
2 | PAPOLG (UniProt Q9BWT3) | -0.086 | 0.083 | 0.167
3 | DCPS (UniProt Q96C86) | -0.92 | -0.621 | -0.92
4 | XPA (UniProt P23025) | 0.0325 | 0.0998 | -0.0786
5 | ENG (UniProt P17813) | -0.721 | -0.506 | 0.478
6 | NBEAL2 (UniProt Q6ZNJ1) | -0.0914 | 0.0428 | 0.0522
7 | NSRP1 (UniProt Q9H0G5) | 0.844 | 0.0777 | 1.07
8 | ISCU (UniProt Q9H1K1) | 0.628 | 0.0375 | -1.15
9 | CNN2 (UniProt Q99439) | 0.281 | 0.653 | 0.356
10 | MPDZ (UniProt O75970) | -0.25 | -0.0819 | 0.0169
11 | CTR9 (UniProt Q6PD62) | 0.156 | 0.203 | 0.243
12 | LOXL2 (UniProt Q9Y4K0) | -1.8 | -1.35 | -0.197
13 | SH3PXD2A (UniProt Q5TCZ1) | -0.325 | -1.05 | 0.207
14 | PIK3R4 (UniProt Q99570) | -0.524 | -0.155 | 0.184
15 | HPDL (UniProt Q96IR7) | 1.09 | 0.497 | 1.13
16 | TOP3B (UniProt O95985) | 0.2 | -0.391 | -0.73
17 | SNRPD2 (UniProt P62316) | 1.08 | 0.689 | 1.15
18 | GTSE1 (UniProt Q9NYZ3) | -0.0607 | 0.0853 | -0.213
19 | AGPAT5 (UniProt Q9NUQ2) | -0.478 | -0.94 | -0.259
20 | LMF2 (UniProt Q9BU23) | -0.972 | -0.61 | 0.316
21 | ZCCHC11 (UniProt Q5TAX3) | -0.38 | -0.287 | -0.424
22 | MTSS1L (UniProt Q765P7) | 0.179 | 0.0525 | -0.228
23 | WWP2 (UniProt O00308) | -0.0648 | -0.0387 | 0.0179
24 | GPAM (UniProt Q9HCL2) | 1.02 | -0.15 | -0.448

Row | Target | thermal stability z-score (lipoamide; [1]) | thermal stability z-score (lipoamide; arsenate co-treatment: none) | thermal stability z-score (potassium arsenate)
25 | DHRS1 (UniProt Q96LJ7) | -0.121 | 0.743 | 0.812
26 | ERO1A (UniProt Q96HE7) | -0.923 | 0.193 | 0.59
27 | COL12A1 (UniProt Q99715) | -3.01 | -2.92 | 0.59
28 | CDC23 (UniProt Q9UJX2) | -0.546 | -0.315 | -0.726
29 | GMFB (UniProt P60983) | 0.0996 | 0.368 | -0.675
30 | RIOK2 (UniProt Q9BVS4) | -0.0928 | -0.423 | -0.171
31 | ZNF609 (UniProt O15014) | 0.0184 | -0.0967 | -0.0848
32 | DCUN1D4 (UniProt Q92564) | 0.0389 | -0.0281 | -0.0972
33 | SAMHD1 (UniProt Q9Y3Z3) | -0.0165 | 0.3 | 0.738
34 | PTRF (UniProt Q6NZI2) | 0.213 | 0.0879 | 0.778
35 | CAMKK1 (UniProt Q8N5S9) | 0.776 | 1.45 | 4.72
36 | TMCO4 (UniProt Q5TGY1) | -0.342 | -0.363 | -0.0739
37 | UBAC2 (UniProt Q8NBM4) | -0.594 | -0.778 | -0.0559
38 | SMC4 (UniProt Q9NTJ3) | 0.387 | 1.46 | 0.763
39 | RAB21 (UniProt Q9UL25) | 0.0174 | 0.118 | 0.119
40 | UFSP2 (UniProt Q9NUQ7) | -1.19 | -0.381 | 0.0966
41 | NCSTN (UniProt Q92542) | -0.537 | -0.624 | -0.207
42 | TATDN1 (UniProt Q6P1N9) | 0.263 | 0.514 | 0.169
43 | ISG20 (UniProt Q96AZ6) | 0.189 | 0.668 | 0.863
44 | HLA | -0.65 | -0.217 | -0.138
45 | HRSP12 (UniProt P52758) | 0.703 | 0.341 | 0.206
46 | TTI2 (UniProt Q6NXR4) | -1.12 | -0.63 | 0.0606
47 | TBK1 (UniProt Q9UHD2) | -0.607 | -0.189 | -0.00763
48 | THUMPD1 (UniProt Q9NXG2) | 0.166 | 0.155 | 3.08

Row | Target | thermal stability z-score (lipoamide; [1]) | thermal stability z-score (lipoamide; arsenate co-treatment: none) | thermal stability z-score (potassium arsenate)
49 | CLU (UniProt P10909) | -1.81 | -2.08 | 0.0163
50 | LRRC57 (UniProt Q8N9N7) | 0.252 | -0.185 | -0.186
51 | NAA16 (UniProt Q6N069) | 0.378 | 0.394 | -0.173
52 | SRP9 (UniProt P49458) | 0.432 | 0.761 | -0.335
53 | GCC1 (UniProt Q96CN9) | -0.192 | -0.169 | -0.179
54 | CBR1 (UniProt P16152) | 0.136 | 0.208 | 0.879
55 | NCOA3 (UniProt Q9Y6Q9) | -0.0145 | 0.0505 | -0.26
56 | DERA (UniProt Q9Y315) | 0.0875 | -0.0376 | -0.0631
57 | PBXIP1 (UniProt Q96AQ6) | -3.02 | -2.69 | -0.357
58 | MCCC2 (UniProt Q9HCC0) | 0.322 | 0.156 | -0.197
59 | LAMP2 (UniProt P13473) | -0.0628 | -0.138 | 0.0434
60 | STX8 (UniProt Q9UNK0) | -0.198 | 0.507 | 0.248
61 | ACBD6 (UniProt Q9BR61) | -1.02 | -0.756 | -0.675
62 | MYOF (UniProt Q9NZM1) | -0.259 | 0.0805 | 0.0213
63 | FLOT1 (UniProt O75955) | 1.38 | 0.653 | -0.283
64 | TUFM (UniProt P49411) | -2.05 | -1.11 | -1.29
65 | TMEM33 (UniProt P57088) | -0.0206 | -1.12 | 0.972
66 | TELO2 (UniProt Q9Y4R8) | -0.413 | -0.306 | 0.208
67 | VDAC2 (UniProt P45880) | 0.262 | 0.307 | 1.58
68 | PPP2R5D (UniProt Q14738) | -0.378 | -0.239 | 0.228
69 | LMNB2 (UniProt Q03252) | 0.686 | 0.0237 | 0.839
70 | RASSF1 (UniProt Q9NS23) | -0.0475 | 0.04 | -0.089
71 | GTF2E1 (UniProt P29083) | -0.0787 | 0.126 | 0.733
72 | SWAP70 (UniProt Q9UH65) | -0.295 | 0.217 | 0.3
